Laboratory results as given in ChEMBL document CHEMBL1134081, “MEK (MAPKK) inhibitors. Part 2: structure-activity relationships of 4-anilino-3-cyano-6,7-dialkoxyquinolines” (Bioorg Med Chem Lett, 2001).

Key:
[1] = target: T1, Dual specificity mitogen-activated protein kinase kinase 1 (Homo sapiens, UniProt Q02750); assay: Inhibitory activity against Dual specificity mitogen-activated protein kinase kinase using direct MEK assay (which by-passes the need for activated Raf by using an activated GST-MEK)
[2] = target: T1, Dual specificity mitogen-activated protein kinase kinase 1; assay: Inhibitory activity against Dual specificity mitogen-activated protein kinase kinase using coupled MEK assay (which uses activated Raf to activate an inactivate GST-MEK)
[3] = target: T1, Dual specificity mitogen-activated protein kinase kinase 1; assay: Inhibition of Dual specificity mitogen-activated protein kinase kinase in coupled activated Raf/MEK assay
[4] = target: T1, Dual specificity mitogen-activated protein kinase kinase 1; assay: Inhibition of Dual specificity mitogen-activated protein kinase kinase in direct activated MEK assay
[5] = tested on: LoVo; assay: Inhibition of LoVo human colon tumor cell proliferation

T1 sequence (Q02750 whole entry): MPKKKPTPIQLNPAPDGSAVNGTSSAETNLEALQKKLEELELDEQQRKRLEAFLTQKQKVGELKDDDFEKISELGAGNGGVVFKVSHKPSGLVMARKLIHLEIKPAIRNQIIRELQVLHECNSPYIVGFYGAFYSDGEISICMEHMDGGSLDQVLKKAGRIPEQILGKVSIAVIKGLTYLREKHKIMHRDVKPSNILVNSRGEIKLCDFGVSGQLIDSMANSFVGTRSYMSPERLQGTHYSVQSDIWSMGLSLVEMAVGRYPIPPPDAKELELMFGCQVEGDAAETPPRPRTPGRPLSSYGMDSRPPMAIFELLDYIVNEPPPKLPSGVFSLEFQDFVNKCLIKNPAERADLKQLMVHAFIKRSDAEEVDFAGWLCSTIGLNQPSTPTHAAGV

COc1cc2ncc(C#N)c(Nc3ccc(Nc4ccccc4)cc3)c2cc1OC
IC50 [1]: 1200 nM
IC50 [2]: 160 nM

COc1cc2ncc(C#N)c(Nc3ccccc3Oc3ccccc3)c2cc1OC
IC50 [1]: > 10000 nM
IC50 [2]: > 10000 nM

COc1ccc(Nc2c(C#N)cnc3cc(OCCCN4CCOCC4)c(OC)cc23)cc1
IC50 [1]: 250 nM
IC50 [2]: 99 nM

COc1cc2c(Nc3ccc(Cc4ccsc4)cc3)c(C#N)cnc2cc1OCCCN1CCOCC1
IC50 [1]: 23 nM
IC50 [2]: 4.2 nM

COc1cc2c(Nc3ccc(Oc4ccccc4)cc3)c(C#N)cnc2cc1OCCCN1CCOCC1
IC50 [2]: 2.4 nM

COc1ccc(Nc2c(C#N)cnc3cc(OC)c(OC)cc23)cc1
IC50 [1]: 3000 nM
IC50 [2]: 520 nM

COc1cc2c(Nc3ccc(CCc4ccccc4)cc3)c(C#N)cnc2cc1OCCCN1CCOCC1
IC50 [3]: 33 nM
IC50 [4]: 150 nM

COc1cc2ncc(C#N)c(Nc3ccc(O)cc3)c2cc1OC
IC50 [1]: 2200 nM
IC50 [2]: 550 nM

COc1cc2ncc(C#N)c(Nc3ccc(SC)cc3)c2cc1OC
IC50 [1]: 1300 nM
IC50 [2]: 280 nM

COc1cc2c(Nc3ccc(OC4CCCCC4)cc3)c(C#N)cnc2cc1OCCCN1CCOCC1
IC50 [1]: 320 nM
IC50 [2]: 110 nM

COc1cc2c(Nc3ccc(CC4CCCCC4)cc3)c(C#N)cnc2cc1OCCCN1CCOCC1
IC50 [1]: 3300 nM
IC50 [2]: 200 nM

COc1cc2c(Nc3ccc(Cc4ccco4)cc3)c(C#N)cnc2cc1OCCCN1CCOCC1
IC50 [1]: 66 nM
IC50 [2]: 20 nM

COc1cc2c(Nc3ccc(Oc4ccncc4)cc3)c(C#N)cnc2cc1OCCCN1CCOCC1
IC50 [1]: 81 nM
IC50 [2]: 26 nM

COc1cc2c(Nc3ccc(Cc4ccccc4)cc3)c(C#N)cnc2cc1OCCCN1CCOCC1
IC50 [1]: 14 nM
IC50 [5]: 210 nM
IC50 [2]: 2.7 nM

COc1cc2c(Nc3ccc(Cc4cccs4)cc3)c(C#N)cnc2cc1OCCCN1CCOCC1
IC50 [1]: 20 nM
IC50 [2]: 4.4 nM

COc1cc2c(Nc3ccc(Cc4ccoc4)cc3)c(C#N)cnc2cc1OCCCN1CCOCC1
IC50 [1]: 43 nM
IC50 [2]: 14 nM

COc1cc2c(Nc3ccc(SC4CCCCC4)cc3)c(C#N)cnc2cc1OCCCN1CCOCC1
IC50 [1]: 300 nM
IC50 [2]: 21 nM

COc1cc2c(Nc3ccc(Sc4ccccc4)cc3)c(C#N)cnc2cc1OCCCN1CCOCC1
IC50 [1]: 5.7 nM
IC50 [5]: 220 nM
IC50 [2]: 1.1 nM

COc1cc2ncc(C#N)c(Nc3ccc(Oc4ccc(Cl)cc4)cc3)c2cc1OC
IC50 [1]: 210 nM
IC50 [2]: 43 nM
